Measured values reported in the OPERA property sets (Mansouri et al. 2018).

logP	SMILES
3.2	Clc1nonc1-c1ccccc1
1.41	Nc1nonc1NC(=O)c1ccccc1
1.81	Nc1nonc1-c1ccccc1
2.59	Cc1nonc1-c1ccccc1
2.82	[O-][n+]1onc(Cl)c1-c1ccccc1
2.7	[O-][n+]1onc(-c2ccccc2)c1Cl
2.36	Cc1nonc1S(=O)(=O)c1ccccc1
1.5	Cc1c(S(=O)c2ccccc2)no[n+]1[O-] (stereo not given)
2.92	O=Cc1c(-c2ccccc2)no[n+]1[O-]
3.83	c1ccc(-c2nonc2-c2ccccc2)cc1
1.77	[O-][n+]1onc(-c2ccccc2)c1CO
3.64	[O-][n+]1onc(-c2ccccc2)c1-c1ccccc1
1.64	[O-][n+]1onc(CO)c1-c1ccccc1
2.26	Cc1no[n+]([O-])c1S(=O)(=O)c1ccccc1
2.16	Cc1no[n+]([O-])c1-c1ccccc1
2.92	Cc1nonc1Sc1ccccc1
2.63	Cc1c(Sc2ccccc2)no[n+]1[O-]
2.22	Cc1no[n+]([O-])c1Cc1ccccc1
1.42	Nc1c(-c2ccccc2)no[n+]1[O-]
2.17	Cc1c(-c2ccccc2)no[n+]1[O-]
2.08	Cc1c(Cc2ccccc2)no[n+]1[O-]
2.03	Cc1c(S(=O)(=O)c2ccccc2)no[n+]1[O-]
3.65	[O-][n+]1onc(Cc2ccccc2)c1Cc1ccccc1
1.47	Nc1no[n+]([O-])c1-c1ccccc1
1.76	Cc1nonc1S(=O)c1ccccc1 (stereo not given)
1.92	OCc1nonc1-c1ccccc1
2.61	O=Cc1no[n+]([O-])c1-c1ccccc1
1.02	Cc1c(Cl)no[n+]1[O-]
2.74	Cc1no[n+]([O-])c1Sc1ccccc1
1.75	Cc1no[n+]([O-])c1S(=O)c1ccccc1 (stereo not given)

Continued, compound first:

SMILES	logP
CC(=O)Nc1nonc1N	-0.23
CCCc1nonc1C	1.71
CCc1nonc1C	1.18
Nc1nonc1N	-0.49
COC(=O)c1nonc1C	0.94
Cc1nonc1[N+](=O)[O-]	0.97
c1ccc2n[se]nc2c1	1.64
O=[N+]([O-])c1nonc1-c1ccccc1	2.63
Cc1no[n+]([O-])c1C=O	1.29
CNC(=O)c1nonc1C	0.56
[O-][n+]1onc2ccccc21	1.43
Cc1c(N)no[n+]1[O-]	-0.17
Cc1no[n+]([O-])c1C(N)=O	0.36
Cc1no[n+]([O-])c1C	0.23
COC(=O)c1c(C)no[n+]1[O-]	0.69
Cc1nonc1C	0.71
COC(=O)c1no[n+]([O-])c1C	0.56
Cc1nonc1-c1ccccc1[N+](=O)[O-]	2.21

SMILES	logP
Cc1n[se]nc1C	0.89
Cc1no[n+]([O-])c1N	-0.32
c1ccc2nonc2c1	1.69
CNC(=O)Nc1nonc1C	0.3
Cc1nonc1N	0.09
Cc1nsnc1C	1.28
CCS(=O)(=O)c1no[n+]([O-])c1C	0.65
Cc1no[n+]([O-])c1Cl	0.9
Cc1c(C=O)no[n+]1[O-]	1.02
c1cnon1	0.16
CC(=O)Nc1nonc1C	0.17
COC(=O)Nc1nonc1C	0.42
Cc1c(C(N)=O)no[n+]1[O-]	0.03
c1ccc2nsnc2c1	1.98
CC(=O)c1c(C)no[n+]1[O-]	0.98
CC(=O)c1no[n+]([O-])c1C	0.8
Cc1nonc1C(N)=O	0.31
